Measurements: paper PMC3518498 (Oncoimmunology, 2012)

test system: HLA-A2 transgenic (HHD) mice; experiment: Peptide immunization of HHD mice, IFNγ intracellular staining of splenocytes; type: in vivo, mouse; conditions: HHD mice immunized with the native peptide; Table 1

**Q.** With ILAKFLHWLM [T.540(10)] as the sequence, how does the “Corresponding native peptide: CMIR, % CD8+IFNγ+ cells” value read?
**A.** Its value is 0.06 % CD8+IFNγ+ cells.

same assay, conditions: HHD mice immunized with the native peptide; responder > 0.1%; Table 1

**Q.** How did the “Corresponding native peptide: Fraction of responders” value turn out when ILAKFLHWLM [T.540(10)] was run?
**A.** The value was 1/5.

same assay, conditions: HHD mice, group average; splenocytes stimulated with native peptide

**Q.** FLVDDFLLV [T.865.F1] was tested. Which “Average % CD8+IFNγ+ cells” value did it give?
**A.** Its value is over 0.1 % CD8+IFNγ+ cells.

**Q.** For ILAKFLHWLV [T.540(10).V10], which “Average % CD8+IFNγ+ cells” value is on record?
**A.** The value was over 0.1 % CD8+IFNγ+ cells.

same assay, conditions: HHD mice, individual animals

**Q.** With RLTVTTITV [C.310.L2] as the sequence, how does the “Range of individual mouse responses, % CD8+IFNγ+ cells” value read?
**A.** Its value is 3.0–14.3%.

same assay, conditions: analog vs. native peptide immunization, HHD mice

**Q.** For FLVDDFLLV [T.865.F1], which “Fold higher native peptide-specific T-cell response with analog” value is on record?
**A.** Its value is 1.9 fold.

biological target: T1, HLA-A2 (A*0201) (Homo sapiens, UniProt P04439, D140Y/D185E/D98H/E176V/E277Q/G131W/G231S/I119V/I121R/I166T/I218V/L300P/L318F/N151K/N90K/P208A/P217A/Q86G/Q94H/R138H/R169H/T345S); experiment: iTopia initial binding assay; conditions: Table 1

**Q.** For ALCRWGLLV [H.5.V9], which “Initial binding, % pos control” value is on record?
**A.** Its value is 72.3 % pos control.

**Q.** For ALVGILLVVV [H.657(10).L2], which “Initial binding, % pos control” value is on record?
**A.** The value was 13.8 % pos control.

**Q.** How did the “Initial binding, % pos control” value turn out when ALVGIMIGV [C.687.L2] was run?
**A.** Its value is 73.7 % pos control.

**Q.** AVVGILLVV [H.657] was tested. Which “Initial binding, % pos control” value did it give?
**A.** Its value is 20.6 % pos control.

**Q.** For FLDLQVNSL [T.986], which “Initial binding, % pos control” value is on record?
**A.** Its value is 69.5 % pos control.

**Q.** How did the “Initial binding, % pos control” value turn out when FLHWLMSVYV [T.544] was run?
**A.** Its value is 48.0 % pos control.

**Q.** Which “Initial binding, % pos control” value does the source give for FLVDDFLLV [T.865.F1] here?
**A.** The value was 88.4 % pos control.

**Q.** Which “Initial binding, % pos control” value does the source give for ILAKFLHWLV [T.540(10).V10] here?
**A.** Its value is 99.8 % pos control.

**Q.** Which “Initial binding, % pos control” value does the source give for KLFGSLAFL here?
**A.** The value was 79.7 % pos control.

**Q.** With LLDTRTLEV [T.934] as the sequence, how does the “Initial binding, % pos control” value read?
**A.** The value was 80.2 % pos control.

**Q.** How did the “Initial binding, % pos control” value turn out when RLTVTTITV [C.310.L2] was run?
**A.** The value was 61.2 % pos control.

**Q.** For VVLGVVFGV [H.665.V9], which “Initial binding, % pos control” value is on record?
**A.** The value was 65.8 % pos control.

**Q.** YLSGANLNV [C.605.V9] was tested. Which “Initial binding, % pos control” value did it give?
**A.** The value was 73.2 % pos control.

biological target: T1, HLA-A2 (A*0201); experiment: iTopia stability; conditions: Table 1

**Q.** What does the source list for ALCRWGLLV [H.5.V9]?
**A.** Binding after 8 h incubation w/o free peptide, % pos control: 33.9 % pos control; MHC complex stability (T1/2): 6.2 h

**Q.** With ALVGILLVVV [H.657(10).L2] as the sequence, how does the “Binding after 8 h incubation w/o free peptide, % pos control” value read?
**A.** Its value is 17.8 % pos control.

**Q.** How did the “Binding after 8 h incubation w/o free peptide, % pos control” value turn out when ALVGIMIGV [C.687.L2] was run?
**A.** The value was 76.2 % pos control.

**Q.** And the “MHC complex stability (T1/2)” value?
**A.** Its value is 26.3 h.

**Q.** With AVVGILLVV [H.657] as the sequence, how does the “Binding after 8 h incubation w/o free peptide, % pos control” value read?
**A.** The value was 12.0 % pos control.

**Q.** What about the “MHC complex stability (T1/2)” value of the same sequence?
**A.** The value was 8.6 h.

**Q.** Which results are given for FLDLQVNSL [T.986]?
**A.** Binding after 8 h incubation w/o free peptide, % pos control: 54.5 % pos control; MHC complex stability (T1/2): 7.8 h

**Q.** What does the source list for FLHWLMSVYV [T.544]?
**A.** Binding after 8 h incubation w/o free peptide, % pos control: 74.4 % pos control; MHC complex stability (T1/2): 40.0 h

**Q.** Which “Binding after 8 h incubation w/o free peptide, % pos control” value does the source give for FLVDDFLLV [T.865.F1] here?
**A.** Its value is 76.2 % pos control.

**Q.** And the “MHC complex stability (T1/2)” value?
**A.** The value was 13.2 h.

**Q.** What does the source list for ILAKFLHWLV [T.540(10).V10]?
**A.** Binding after 8 h incubation w/o free peptide, % pos control: 88.8 % pos control; MHC complex stability (T1/2): 16.8 h

**Q.** How did the “Binding after 8 h incubation w/o free peptide, % pos control” value turn out when KLFGSLAFL was run?
**A.** Its value is 114.9 % pos control.

**Q.** And the “MHC complex stability (T1/2)” value?
**A.** The value was 40.0 h.

**Q.** LLDTRTLEV [T.934] was tested. Which “Binding after 8 h incubation w/o free peptide, % pos control” value did it give?
**A.** Its value is 66.3 % pos control.

**Q.** What about the “MHC complex stability (T1/2)” value of the same sequence?
**A.** Its value is 21.6 h.

**Q.** RLTVTTITV [C.310.L2] was tested. Which “Binding after 8 h incubation w/o free peptide, % pos control” value did it give?
**A.** Its value is 64.4 % pos control.

**Q.** What about the “MHC complex stability (T1/2)” value of the same sequence?
**A.** The value was 25.4 h.

**Q.** How did the “Binding after 8 h incubation w/o free peptide, % pos control” value turn out when VVLGVVFGV [H.665.V9] was run?
**A.** Its value is 72.7 % pos control.

**Q.** What about the “MHC complex stability (T1/2)” value of the same sequence?
**A.** The value was 40.0 h.

**Q.** What does the source list for YLSGANLNV [C.605.V9]?
**A.** Binding after 8 h incubation w/o free peptide, % pos control: 78.5 % pos control; MHC complex stability (T1/2): 27.4 h
